Laboratory results: ChEMBL document CHEMBL1201862, “PubChem BioAssay data set” (2004)
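Growth conditions: 96-well plates. Treatment: test compound, 48 hours, 5 concentrations. Analysis: linear interpolation between bracketing concentrations; unreached endpoints set to highest concentration. At the GI50, growth is halved.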 Calls of active or inactive are those of the source. Rule as the data show it: active = GI50 up to about 1.1 µM and inactive = higher.

Columns and labels:
Test in all cases: growth of human tumour cells (NCI), 48 h
KM-20L2 = system: KM-20L2
MCF7 = system: MCF7
NCI-H460 = system: NCI-H460
OVCAR-8 = system: OVCAR-8
CAKI-1 = system: CAKI-1
BT-549 = system: BT-549
SNB-19 = system: SNB-19
NCI-H226 = system: NCI-H226
CCRF-CEM = system: CCRF-CEM
MDA-N = system: MDA-N
A549 = system: A549
HOP-92 = system: HOP-92
MDA-MB-435 = system: MDA-MB-435
RXF 393 = system: RXF 393
SK-MEL-5 = system: SK-MEL-5
IGROV-1 = system: IGROV-1
SK-MEL-28 = system: SK-MEL-28
PC-3 = system: PC-3
MDA-MB-231 = system: MDA-MB-231
COLO 205 = system: COLO 205

## COC(=O)N/N=C(/c1nc2ccc([N+](=O)[O-])cc2nc1O)C(O)c1ccc(OC)c(OC)c1 (centres undefined)
KM-20L2
  GI50: > 100 µM (inactive)
MCF7
  GI50: 88.1 µM (inactive)
NCI-H460
  GI50: 59 µM (inactive)
OVCAR-8
  GI50: > 100 µM (inactive)
CAKI-1
  GI50: > 100 µM (inactive)
BT-549
  GI50: > 100 µM (inactive)
SNB-19
  GI50: > 100 µM (inactive)
NCI-H226
  GI50: > 100 µM (inactive)
CCRF-CEM
  GI50: 37.8 µM (inactive)
MDA-N
  GI50: > 100 µM (inactive)
A549
  GI50: > 100 µM (inactive)
HOP-92
  GI50: > 100 µM (inactive)
MDA-MB-435
  GI50: > 100 µM (inactive)
RXF 393
  GI50: > 100 µM (inactive)
SK-MEL-5
  GI50: 29.8 µM (inactive)
IGROV-1
  GI50: > 100 µM (inactive)
SK-MEL-28
  GI50: > 100 µM (inactive)
PC-3
  GI50: 76.2 µM (inactive)
MDA-MB-231
  GI50: 64.3 µM (inactive)
COLO 205
  GI50: 39.4 µM (inactive)

## CN1CCOC(c2ccccc2)O1 (centres undefined)
KM-20L2
  GI50: > 100 µM (inactive)
NCI-H460
  GI50: > 100 µM (inactive)
OVCAR-8
  GI50: > 100 µM (inactive)
CAKI-1
  GI50: > 100 µM (inactive)
SNB-19
  GI50: > 100 µM (inactive)
NCI-H226
  GI50: > 100 µM (inactive)
CCRF-CEM
  GI50: > 100 µM (inactive)
A549
  GI50: > 100 µM (inactive)
HOP-92
  GI50: > 100 µM (inactive)
RXF 393
  GI50: > 100 µM (inactive)
SK-MEL-5
  GI50: > 100 µM (inactive)
IGROV-1
  GI50: > 100 µM (inactive)
SK-MEL-28
  GI50: > 100 µM (inactive)
COLO 205
  GI50: > 100 µM (inactive)

## CC1OC(CC(=O)O)Cc2c(O)c3c(c(O)c21)C(=O)C=C(C1=CC(=O)c2c(O)c4c(c(O)c2C1=O)CC(CC(=O)O)OC4C)C3=O (centres undefined)
KM-20L2
  GI50: 22.2 µM (inactive)
NCI-H460
  GI50: 60.8 µM (inactive)
OVCAR-8
  GI50: 23.4 µM (inactive)
CAKI-1
  GI50: 29.1 µM (inactive)
SNB-19
  GI50: > 100 µM (inactive)
NCI-H226
  GI50: 50.8 µM (inactive)
CCRF-CEM
  GI50: 2.75 µM (inactive)
A549
  GI50: 45.1 µM (inactive)
HOP-92
  GI50: 24.3 µM (inactive)
RXF 393
  GI50: 6.14 µM (inactive)
SK-MEL-5
  GI50: 16.4 µM (inactive)
IGROV-1
  GI50: 30.7 µM (inactive)
SK-MEL-28
  GI50: 14.7 µM (inactive)
COLO 205
  GI50: 5.28 µM (inactive)

## CC[C@@H](C)[C@H]([C@H](CC(=O)N1CCC[C@@H]1[C@@H](OC)[C@H](C)C(=O)N[C@H](Cc1ccccc1)c1nccs1)OC)N(C)C(=O)[C@H](NC(=O)[C@@H](C(C)C)N(C)C)C(C)C
KM-20L2
  GI50: 6.79e-05 µM (active)
MCF7
  GI50: < 0.01 µM (active)
NCI-H460
  GI50: 5.9e-05 µM (active)
OVCAR-8
  GI50: 0.000286 µM (active)
BT-549
  GI50: < 0.01 µM (active)
SNB-19
  GI50: 0.000267 µM (active)
NCI-H226
  GI50: 0.000153 µM (active)
MDA-N
  GI50: < 0.01 µM (active)
A549
  GI50: 0.000121 µM (active)
HOP-92
  GI50: 0.00104 µM (active)
MDA-MB-435
  GI50: < 0.01 µM (active)
RXF 393
  GI50: 0.000191 µM (active)
SK-MEL-5
  GI50: 2.51e-05 µM (active)
IGROV-1
  GI50: 0.000681 µM (active)
SK-MEL-28
  GI50: 0.00069 µM (active)
PC-3
  GI50: < 0.01 µM (active)
MDA-MB-231
  GI50: < 0.01 µM (active)
COLO 205
  GI50: 7.13e-05 µM (active)

## CN(C)CCN(C)CC1COC(C)(C)O1 (centres undefined)
KM-20L2
  GI50: > 100 µM (inactive)
NCI-H460
  GI50: > 100 µM (inactive)
OVCAR-8
  GI50: > 100 µM (inactive)
CAKI-1
  GI50: > 100 µM (inactive)
SNB-19
  GI50: > 100 µM (inactive)
NCI-H226
  GI50: > 100 µM (inactive)
CCRF-CEM
  GI50: > 100 µM (inactive)
A549
  GI50: > 100 µM (inactive)
HOP-92
  GI50: > 100 µM (inactive)
RXF 393
  GI50: > 100 µM (inactive)
SK-MEL-5
  GI50: > 100 µM (inactive)
IGROV-1
  GI50: > 100 µM (inactive)
SK-MEL-28
  GI50: > 100 µM (inactive)
COLO 205
  GI50: > 100 µM (inactive)

## CC1CN1C(=O)NCCCCCCNC(=O)N1CC1C (centres undefined)
KM-20L2
  GI50: > 100 µM (inactive)
MCF7
  GI50: 70.3 µM (inactive)
NCI-H460
  GI50: 2.61 µM (inactive)
OVCAR-8
  GI50: 69 µM (inactive)
CAKI-1
  GI50: 48.4 µM (inactive)
BT-549
  GI50: > 100 µM (inactive)
SNB-19
  GI50: > 86.7 µM (inactive)
NCI-H226
  GI50: > 75.7 µM (inactive)
CCRF-CEM
  GI50: 14.7 µM (inactive)
MDA-N
  GI50: > 100 µM (inactive)
A549
  GI50: 31.1 µM (inactive)
HOP-92
  GI50: > 93.5 µM (inactive)
MDA-MB-435
  GI50: > 100 µM (inactive)
RXF 393
  GI50: > 100 µM (inactive)
SK-MEL-5
  GI50: > 100 µM (inactive)
IGROV-1
  GI50: > 100 µM (inactive)
SK-MEL-28
  GI50: > 100 µM (inactive)
PC-3
  GI50: > 100 µM (inactive)
MDA-MB-231
  GI50: > 100 µM (inactive)
COLO 205
  GI50: > 100 µM (inactive)

## CN(C)CCNc1ccc(CO)c2sc3ccc(O)cc3c(=O)c12
KM-20L2
  GI50: 6.41 µM (inactive)
NCI-H460
  GI50: 0.0259 µM (active)
OVCAR-8
  GI50: 1.97 µM (inactive)
CAKI-1
  GI50: 0.957 µM (active)
BT-549
  GI50: 2.62 µM (inactive)
SNB-19
  GI50: 2.46 µM (inactive)
NCI-H226
  GI50: 1.15 µM (inactive)
CCRF-CEM
  GI50: 0.171 µM (active)
MDA-N
  GI50: 1.45 µM (inactive)
A549
  GI50: 0.286 µM (active)
HOP-92
  GI50: 0.832 µM (active)
MDA-MB-435
  GI50: 1.56 µM (inactive)
RXF 393
  GI50: 1.96 µM (inactive)
SK-MEL-5
  GI50: 1.29 µM (inactive)
IGROV-1
  GI50: 3.42 µM (inactive)
SK-MEL-28
  GI50: 7.8 µM (inactive)
PC-3
  GI50: 1.32 µM (inactive)
MDA-MB-231
  GI50: 1.85 µM (inactive)
COLO 205
  GI50: 4.3 µM (inactive)
